Measured values published in patent publication US9452185B2, “Mesenchymal stem cells and supports for tissue regeneration, repair and reconstruction” (THE TEXAS A&M UNIVERSITY SYSTEM, priority 2009, dated 2016).
Entries after “also recorded” stand apart in the source; their conditions may differ.

Assays:
hMSCs [1] = test: Late stage osteogenesis, Alizarin Red S (ARS) staining; format: cell-based, human; conditions: for dex-induced biomineralization with simultaneous treatment: 17 days with β-GP, ascorbate and dex; for dex-induced mineralization after pre-treatment: BIO 200 and 800 nM, GW 1.0 and 10.0 μM for 8 days, then 15 days with dex; for biomineralization in the absence of dex: extended incubation
Procedure: Late stage osteogenesis and ARS staining. Mature osteogenic assays were performed in 6 well format as previously described (Gregory et al., 2004, Anal Biochem 329:77-84).
Effect of GSK3β and PPARγ inhibition on late stage osteogenesis. […] Initially, experiments were conducted to examine whether pre-treatment of hMSCs with inhibitors BIO (200 and 800 nM) and GW (1.0 and 10.0 μM) in the presence of β-glycerophosphate (β-GP) and ascorbate for 8 days followed by 15 days in the same media supplemented with dex affected mineralization of the cultures. If BIO or GW function to accelerate the cells through the immature stages of osteogenesis and partially to maturity, hMSCs exposed to these conditions would be expected to respond more rapidly to the steroid-dependent mature osteoblast transition. After differentiation, calcium content was visualized by Alizarin Red S (ARS) staining and the dye was extracted and quantified. At the doses tested, and in a dose-dependent manner, BIO and GW enhanced dex-induced differentiation into biomineralizing osteoblasts (FIG. 21).
The next experiments were performed to examine whether withdrawal of the Wnt stimulus caused by BIO and GW was necessary for the hMSCs to progress to a dex-dependent biomineralizing phenotype. Human MSCs were pre-cultured with BIO and GW in the presence of f3-GP, ascorbate and dex for 17 days. […] Clotted human plasma is a biocompatible and osteoinductive vector for administration of hMSCs

hMSCs [2] = test: hMSC yield, cell cycle analysis and cleaved caspase-3 immunoblot; format: cell-based, human; conditions: for hMSC yield: BIO at concentrations greater than 400 nM, GW at tested doses; for cleaved caspase-3 (Asp175) immunoblot: whole cell extracts of treated hMSCs
Procedure: Cell cycle. Profiles were generated by fluorescence activated cell sorting and analyzed with software. Protein extraction, gel electrophoresis and western blotting. Nuclear extracts were performed by Triton extraction and differential centrifugation as previously described (Gregory et al., 2003, J Biol Chem 278:2806728078). Proteins were electrophoresed and blotted onto nitrocellulose using an electrophoresis system.

Dkk-1 = Dkk-1 secretion by ELISA; format: cell-based, human; conditions: osteogenic medium lacking dex, 8 days
Procedure: (§1) ELISAs. ELISA for CXCL6, Dkk-1, GROa, GRO13, and OPG were carried out by using nonbiotinylated polyclonal capture antibodies and biotinylated detection antibodies that were commercially acquired on coated 96-well plates The biotinylated […] antibodies were detected by using horseradish peroxidase-conjugated streptavidin and TMB substrate. ELISA for IL-lb were performed by using commercially acquired kits. In order to characterize the influence of 7AIPM on osteogenic differentiation, hMSC's from two donors were cultured as described elsewhere herein with the addition of varying concentrations of the compound or vehicle to the media. Samples of the media were collected daily for analysis. These samples were analyzed for the presence of OPG and Dkk-1 using ELISA. Alkaline phosphatase activity of the monolayers and cell numbers were measured using a spectrophotometer.

calvarial defects = test: Calvarial defect repair, 50 days (x-ray radio-opacity); format: in vivo, nude mice; conditions: for repair of cranial lesions (radio-opacity ratio lesioned/contralateral): day 50, 1×10^6 pretreated hMSCs in plasma, further doses day 14, 28, 42
Procedure: Calvarial lesions. MSCs were cultured in the presence of osteogenic base media containing the appropriate inhibitor or vehicle. After 8 days, they were suspended in human plasma and administered to nude mice that had received a circular lesion in the cranium. Subsequent doses of cells were administered by direct injection in plasma/thromboplastin mix.
X-ray imaging and quantification. Cranial bones were imaged by x-ray under anaesthesia. Digital images were be captured on a digital plate and processed on a phosphorimager reader and processed by volume analysis software.
Effects of GSKβ and PPARγ inhibition on repair of an induced cranial defect in mice. Given that BIO and GW accelerated osteogenic differentiation by human MSCs in vitro, experiments were conducted to test whether the treated hMSCs could repair a critical bone defect in vivo. Human MSCs were cultured in the presence of osteogenic medium lacking dex, but containing BIO (200 and 800 nM) or GW (1.0 and 10.0 μM). Calvarial lesions were generated in nude mice and 1×10^6 hMSCs, mixed with human plasma were applied followed by thromboplastin to initiate gelling. The scalp was sutured and the animals were allowed to heal. Initially, short-duration experiments were performed to monitor distribution of the hMSCs, and to ensure the cells had survived the implantation process. GFP-labeled hMSCs were administered and mice were sacrificed after 24 h. Upon histological analysis, a substantial number of GFP-labeled, healthy hMSCs had formed a thick layer over the injury and adjacent bone tissue (FIG. 24A, 24B). The hMSCs could be readily detected with an antibody for membrane localized human β-2 microglobulin (FIG. 24C, 24D). Robust antibody-detection of unmanipulated hMSCs, rather than lentiviral labeling was favored in long term experiments because very low passage hMSCs could be utilized, rather than genetically tagged preparations that had undergone a number of passages. Long term experiments were performed for 50 days with further doses of hMSCs administered at day 14, 28 and 42 by direct injection of a plasma:hMSC mixture under the scalp (FIG. 25A). At day 50, the crania were explanted and x-ray images of the calvarial lesions were taken. The digitized images were then analysed densitometrically to quantify the degree of bone accrual (FIG. 25B). The lesioned side was compared with the contralateral side and data were expressed as the ratio of radio-opacity on the lesioned side to the contralateral side. […] When the sections were stained with anti-β-2 microglobulin, isolated clusters of hMSCs from only control and GW groups were detected (FIGS. 27C and 27D).

hMSCs [3] = test: Microarray of cultured hMSCs after 8 days in osteogenic media (in vitro); format: cell-based, human; conditions: for transcript transducin-like enhancer of split-1 / transcripts Klf-6, caldesmon-1, gamma-aminobutyric acid B receptor-2, synaptotagmin like-2 / transcripts fibroblast growth factor-7, high mobility group AT-hook 2, Cdk5 and Abl enzyme substrate-1, amyloid beta precursor protein-binding family B2 / transcripts protocadherin-7, PR domain containing-1, gremlin-1, collectin subfamily member-12, stanniocalcin-2: 8 days, 200/800 nM BIO, 1.0/10 μM GW; for collagens and ECM proteins found in bone tissue (transcripts): vs vehicle control
Procedure: Array analysis. Transcriptome arrays were performed using Affimetrix apparatus and HG-U133 Plus 2.0 chips. Cytokine arrays on conditioned media were performed using a human cytokine array and analyzed using a digital imager. Effects of GSK3β and PPARγ inhibition on the transcriptome of hMSCs. […] After 8 days of culture, RNA microarrays were performed on the hMSCs.

osteoprotegerin (OPG) = test: OPG secretion by ELISA; format: cell-based, human; conditions: osteogenic medium lacking dex, 8 days
Procedure: as §1

| SMILES | dex-induced biomineralization with simultaneous treatment (hMSCs [1]) | dex-induced mineralization after pre-treatment (hMSCs [1]) | biomineralization in the absence of dex (hMSCs [1]) | cell cycle effect (hMSCs [2]; 800 nM BIO, 8 days) | hMSC yield (hMSCs [2]) | cleaved caspase-3 (Asp175) immunoblot (hMSCs [2]) | Dkk-1 secretion (Dkk-1) | repair of cranial lesions (radio-opacity ratio lesioned/contralateral) (calvarial defects) | transcript transducin-like enhancer of split-1 (hMSCs [3]) | transcripts Klf-6, caldesmon-1, gamma-aminobutyric acid B receptor-2, synaptotagmin like-2 (hMSCs [3]) | transcripts fibroblast growth factor-7, high mobility group AT-hook 2, Cdk5 and Abl enzyme substrate-1, amyloid beta precursor protein-binding family B2 (hMSCs [3]) | transcripts protocadherin-7, PR domain containing-1, gremlin-1, collectin subfamily member-12, stanniocalcin-2 (hMSCs [3]) | collagens and ECM proteins found in bone tissue (transcripts) (hMSCs [3]) | secretion of OPG (osteoprotegerin (OPG)) | improvement in healing compared with controls (calvarial defects; MSCs treated with GW9662 applied to calvaria bone defect) | lesion healing (calvarial defects; after 50 days of repeated cell administration) | repair of cranial lesions (radio-opacity ratio lesioned/contralateral) (calvarial defects; listed as GW) | inflammatory mediator genes (IL1, IL8, CXCL chemokines) (hMSCs [3]; vs control) | dose of maximal stimulation of OPG secretion (osteoprotegerin (OPG)) |
| --- | --- | --- | --- | --- | --- | --- | --- | --- | --- | --- | --- | --- | --- | --- | --- | --- | --- | --- | --- |
| O=C1Nc2cc(Br)ccc2/C1=C1/Nc2ccccc2/C1=N\O [BIO, bromo-indirubin-3′-mono-oxime] | enhanced dex-induced biomineralization | enhanced | did not induce biomineralization | inhibit mitosis | substantial reduction | no evidence of caspase 3 processing | reduced | no significant sign of bone repair | down-regulated | significantly up-regulated | no change | significantly up-regulated | up-regulated | rose in a dose dependent manner |  |  |  |  |  |
| O=C(Nc1ccccc1)c1cc([N+](=O)[O-])ccc1Cl [GW9662, 2-chloro-5-nitro-N-phenyl-benzamide] | enhanced dex-induced biomineralization | enhanced | did not induce biomineralization |  | without reduction in cellular yield | no evidence of caspase 3 processing | reduced |  | down-regulated | significantly up-regulated | significantly up-regulated | no change | up-regulated |  | 2-3 fold | about 60% | significantly improved; also recorded: profoundly improved healing | profoundly down-regulated | 0.5 µM |
